Experimental findings from US4178442A, “Novel cinnamoyles piperazines and homopiperazines, the method of preparing them and their application in therapeutics” (Delalande S. A., priority 1977, dated 1979) are described below.

The subject of data set [1] is anaesthetized dog. In words: Activity on the cerebral circulation, anaesthetized dog. In kind it is in vivo. As to conditions: for change in vivo at 5 mg/kg / change in vivo at 2.5 mg/kg: Canis lupus familiaris, iv; for Increase of the extraction of cerebral oxygen: (A-V)/A. Here is the method: The activity on the cerebral circulation was tested on an anaesthetized dog (sodium pentobarbital 30 mg/kg/i.v.). The vertebral artery flow was measured by means of an electromagnetic perivascular or ultrasonic Doppler effect probe. The intracerebral vascular resistance was estimated by the back pressure of the internal carotid artery. […] The increase in the extraction of cerebral oxygen was estimated by the following equation:(A-V)/A in which: A represents the volume of oxygen in the arterial blood (% volume) measured by hemoreflectometry (KIPP and ZONEN's apparatus) and quantity determination of the haemoglobin (DRABKIN's method). V represents the volume of oxygen in the cerebral venous blood (internal maxillary vein). […] It should be noted that the compounds tested were injected intravenously (rapid injection).

Data set [2] relates to anaesthetized dog. In words: Antiangorous activity on anaesthetized dog: consumption of oxygen in the left ventricule and cardiac effort (KATZ's index). The data set is classed as in vivo. As to conditions: for inhibition in vivo at 9.1 mg/kg / inhibition in vivo at 2.5 mg/kg / inhibition in vivo at 2.1 mg/kg / inhibition in vivo at 0.625 mg/kg: Canis lupus familiaris, iv. An outline of the steps:
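Dogs anaesthetized with sodium pentobarbital 30 mg/kg i.v.; compounds given by slow i.v. perfusion. Left ventricular O2 consumption = coronary venous flow (Morawitz cannula in coronary sinus) × arteriovenous O2 difference; cardiac effort (Katz index) = mean arterial pressure × heart rate from D2 ECG.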

Data set [3] in a line: in vivo. As to conditions: for LD50: iv, read-out: Toxicity: LD50. The source says:
*LD50 or percentage of mortality which is given between brackets

[4] abbreviates: dog, 5 mg/kg i.v. rapid injection, read-out: Internal carotid artery back pressure.
Where [5] appears, read: dog, 5 mg/kg i.v. rapid injection, read-out: Systemic average arterial pressure.
Setting [6] is: dog, 5 mg/kg i.v. rapid injection, read-out: Vertebral artery flow.
[7] abbreviates: dog, 5 mg/kg i.v. rapid injection.
[8] abbreviates: dog, 2,5 mg/kg i.v. rapid injection, read-out: Internal carotid artery back pressure.
Where [9] appears, read: dog, 2,5 mg/kg i.v. rapid injection, read-out: Systemic average arterial pressure.
[10] abbreviates: dog, 2,5 mg/kg i.v. rapid injection.
[11] abbreviates: 2.5 mg/kg i.v. slow perfusion, read-out: Diminution in consumption of O2.
Where [12] appears, read: 2.5 mg/kg i.v. slow perfusion, read-out: Diminution in the cardiac effort (IK).
The mark [13] stands for this setting: 0.625 mg/kg i.v. slow perfusion.

The LD50 is the dose expected to kill half of the subjects tested. One may read the mortality as the percentage killed.

Counter-ions that a name gives are not always drawn. Like-named read-outs stand apart in the source and are kept apart here.

`C=CCc1ccccc1OCC(O)CN1CCN(C(=O)/C=C/c2cc(OC)c(OC)c(OC)c2)CC1` (centres unmarked) [760 518]: the change in vivo at 5 mg/kg in data set [1] (setting [4]) was -48%. For the same compound, the change in vivo at 5 mg/kg in data set [1] (setting [5]) was -15%. Further, in data set [1] (setting [6]), the change in vivo at 5 mg/kg was found to be 180%. For the same compound, in data set [1] (setting [7]), the “Internal carotid artery back pressure: in time” value was found to be 5 min, the Systemic average arterial pressure: in time amounted to 5 min and the “Vertebral artery flow: in time” value was 5 min.

Regarding `COc1cccc(OCC(O)CN2CCN(C(=O)/C=C/c3cc(OC)c(OC)c(OC)c3)CC2)c1` (centres unmarked) [760 390], the change in vivo at 5 mg/kg in data set [1] (setting [4]) was -22%. Besides, the change in vivo at 5 mg/kg in data set [1] (setting [5]) is -13%. In addition, the change in vivo at 5 mg/kg in data set [1] (setting [6]) turned out to be 177%. In data set [1] (setting [7]), the “Internal carotid artery back pressure: in time” value is reported as 5 min, the Systemic average arterial pressure: in time is below 10 min and the “Vertebral artery flow: in time” value stood at 30 min. In data set [2] (9.1 mg/kg i.v. slow perfusion), the “Diminution in consumption of O2: in time” value is on record as 53 min and the “Diminution in the cardiac effort (IK): in time” value (shortened to “Diminution in the cardiac effort”) came out at 45 min. For the same compound, in data set [2] (9.1 mg/kg i.v. slow perfusion, read-out: Diminution in consumption of O2), the inhibition in vivo at 9.1 mg/kg was determined as 64%. For the same compound, the inhibition in vivo at 9.1 mg/kg in data set [2] (9.1 mg/kg i.v. slow perfusion, read-out: Diminution in the cardiac effort (IK)) stood at 60%. Also, the LD50 in data set [3] stood at 227 mg/kg.

Consider `COc1cc(/C=C/C(=O)N2CCCN(CC(O)COc3ccccc3)CC2)cc(OC)c1OC` (centres unmarked) [760 388], for which the change in vivo at 5 mg/kg in data set [1] (setting [4]) was -65%. In addition, the change in vivo at 5 mg/kg in data set [1] (setting [5]) was -44%. Also, the change in vivo at 5 mg/kg in data set [1] (setting [6]) was determined as 225%. For the same compound, in data set [1] (setting [7]), the “Internal carotid artery back pressure: in time” value was 50 min, the Systemic average arterial pressure: in time turned out to be 50 min and the “Vertebral artery flow: in time” value was 50 min.

Regarding `COc1cc(/C=C/C(=O)N2CCN(CC(O)COc3cccc(C(C)=O)c3)CC2)cc(OC)c1OC` (centres unmarked) [770 458], the change in vivo at 2.5 mg/kg in data set [1] (setting [8]) is -11%. Also, the change in vivo at 2.5 mg/kg in data set [1] (setting [9]) was -10%. Also, in data set [1] (setting [10]), the “Internal carotid artery back pressure: in time” value was 15 min, the Systemic average arterial pressure: in time stood at 15 min and the “Increase of the extraction of cerebral oxygen” value was “+35%”. Also, in data set [2] (2.5 mg/kg i.v. slow perfusion), the “Diminution in consumption of O2: in time” value stood at 23 min and the “Diminution in the cardiac effort” value is listed as 15 min. In data set [2] (setting [11]), the inhibition in vivo at 2.5 mg/kg amounted to 72%. Also, the inhibition in vivo at 2.5 mg/kg in data set [2] (setting [12]) was found to be 25%. Besides, in data set [3], the LD50 was 250 mg/kg.

For the compound `COc1cc(/C=C/C(=O)N2CCN(CC(O)CN(C)c3ccccc3)CC2)cc(OC)c1OC` (centres unmarked) [770 495, 1-(3-N-methylanilino-2-hydroxy)propyl-4-(3,4,5-trimethoxycinnamoyl)piperazine, hydrated oxalate], in data set [1] (setting [8]), the change in vivo at 2.5 mg/kg was -17%. In addition, the change in vivo at 2.5 mg/kg in data set [1] (setting [9]) is -20%. Besides, in data set [1] (setting [10]), the “Internal carotid artery back pressure: in time” value is 60 min, the Systemic average arterial pressure: in time came out at 20 min, the “Vertebral artery flow: in time” value stood at 60 min and the “Increase of the extraction of cerebral oxygen” value is recorded as “+188%”. For the same compound, in data set [2] (2.5 mg/kg i.v. slow perfusion), the “Diminution in consumption of O2: in time” value is given as 45 min and the “Diminution in the cardiac effort” value stood at 30 min. Besides, the inhibition in vivo at 2.5 mg/kg in data set [2] (setting [11]) is 74%. Further, the inhibition in vivo at 2.5 mg/kg in data set [2] (setting [12]) amounted to 43%. Further, the LD50 in data set [3] came to 175 mg/kg.

As to `COc1cc(/C=C/C(=O)N2CCN(CC(O)COc3ccc(C(C)=O)c4c3OCCO4)CC2)cc(OC)c1OC` (centres unmarked) [760 394], in data set [2] (2.1 mg/kg i.v. slow perfusion), the “Diminution in consumption of O2: in time” value amounted to 60 min. Also, in data set [2] (2.1 mg/kg i.v. slow perfusion), the “Diminution in the cardiac effort” value was 45 min. Also, the inhibition in vivo at 2.1 mg/kg in data set [2] (2.1 mg/kg i.v. slow perfusion, read-out: Diminution in consumption of O2) amounted to 60%; in data set [2] (2.1 mg/kg i.v. slow perfusion, read-out: Diminution in the cardiac effort (IK)), 46%. For the same compound, in data set [3], the LD50 turned out to be 214 mg/kg.

Regarding `COc1cc(/C=C/C(=O)N2CCCN(CC(O)COc3ccc(C(C)=O)cc3)CC2)cc(OC)c1OC` (centres unmarked) [780 415], in data set [2] (2.5 mg/kg i.v. slow perfusion), the “Diminution in consumption of O2: in time” value was found to be 30 min and the “Diminution in the cardiac effort” value was found to be 30 min. Moreover, in data set [2] (setting [11]), the inhibition in vivo at 2.5 mg/kg came out at 29%. In data set [2] (setting [12]), the inhibition in vivo at 2.5 mg/kg was found to be 10%. The LD50 in data set [3] worked out at 305 mg/kg.

As for `COc1cc(/C=C/C(=O)N2CCN(CC(O)COc3ccc(NC(=O)C4CCCCC4)c4c3OCCO4)CC2)cc(OC)c1OC` (centres unmarked) [770 533], in data set [2] (setting [13]), the “Diminution in consumption of O2: in time” value was found to be 25 min. Moreover, the “Diminution in the cardiac effort” value in data set [2] (setting [13]) is given as 25 min. The inhibition in vivo at 0.625 mg/kg was 30% in data set [2] (0.625 mg/kg i.v. slow perfusion, read-out: Diminution in consumption of O2) and 28% in data set [2] (0.625 mg/kg i.v. slow perfusion, read-out: Diminution in the cardiac effort (IK)). Besides, the mortality in data set [3] (po, p.o.: 2000 mg/kg, read-out: Toxicity (Mortality)) came to 10%.
